ChEMBL document CHEMBL3885861, “Open TG-GATES”

Organism: Rattus norvegicus
Assay: Open TG-GATES - Regimen: Single
Type: toxicity, organism-based, Sprague-Dawley
Parameters: regimen Single, gender Male, age 6 weeks
Details: in vivo, po, 15 mg/kg, route gavage, dose level High; for APTT / Bas / Eos / Fbg / Hb / Ht / Lym / MCH / MCHC / MCV / Mono / Neu / PT / Plat / RBC / Ret / WBC: tissue Blood; for KIDNEY_L / KIDNEY_R / KIDNEY_TOTAL: tissue Kidney; for ALP / ALT / AST / CRE / Cl / DBIL / GLC / IP / K / LDH / Na / PL / RALB / TBIL / TC / TG / TP / gamma-GTP: tissue Plasma

COc1cc2c(c(OC)c1OC)-c1ccc(OC)c(=O)cc1[C@@H](NC(C)=O)CC2 [COLCHICINE]
TERMINAL_BW (3 h): 219.9 g
APTT (3 h): 17.2 s
Bas (3 h): 0%
Eos (3 h): 0.8%
Fbg (3 h): 212.4 mg/dL
Hb (3 h): 13.4 g/dL
Ht (3 h): 40.8%
Lym (3 h): 76.2%
MCH (3 h): 21.9 pg
MCHC (3 h): 33%
MCV (3 h): 66.3 fL
Mono (3 h): 13%
Neu (3 h): 10%
PT (3 h): 12.3 s
Plat (3 h): 111.2 x10_4/uL
RBC (3 h): 614.8 x10_4/ul
Ret (3 h): 9.9%
WBC (3 h): 105.1 x10_2/uL
KIDNEY_L (3 h): 1 g
KIDNEY_R (3 h): 1 g
KIDNEY_TOTAL (3 h): 2 g
ALP (3 h): 859.4 IU/L
ALT (3 h): 59.8 IU/L
AST (3 h): 152.8 IU/L
CRE (3 h): 0.5 mg/dL
Cl (3 h): 105.2 meq/L
DBIL (3 h): 0.03 mg/dL
GLC (3 h): 184.8 mg/dL
IP (3 h): 9.3 mg/dL
K (3 h): 4.6 meq/L
LDH (3 h): 377.8 IU/L
Na (3 h): 138.6 meq/L
PL (3 h): 113.4 mg/dL
RALB (3 h): 3.7 g/dL
TBIL (3 h): 0.4 mg/dL
TC (3 h): 75.2 mg/dL
TG (3 h): 21.4 mg/dL
TP (3 h): 5.6 g/dL
gamma-GTP (3 h): 2.4 IU/L
TERMINAL_BW (6 h): 220.6 g
APTT (6 h): 17.3 s
Bas (6 h): 0%
Eos (6 h): 0.8%
Fbg (6 h): 215 mg/dL
Hb (6 h): 14.5 g/dL
Ht (6 h): 44.5%
Lym (6 h): 69.6%
MCH (6 h): 21.2 pg
MCHC (6 h): 32.7%
MCV (6 h): 65 fL
Mono (6 h): 6.2%
Neu (6 h): 24%
PT (6 h): 14.1 s
Plat (6 h): 109.9 x10_4/uL
RBC (6 h): 684.6 x10_4/ul
Ret (6 h): 8.3%
WBC (6 h): 68.3 x10_2/uL
KIDNEY_L (6 h): 1 g
KIDNEY_R (6 h): 1 g
KIDNEY_TOTAL (6 h): 2 g
ALP (6 h): 1105.6 IU/L
ALT (6 h): 257.8 IU/L
AST (6 h): 651.4 IU/L
CRE (6 h): 0.5 mg/dL
Cl (6 h): 104.2 meq/L
DBIL (6 h): 0.1 mg/dL
GLC (6 h): 174.8 mg/dL
IP (6 h): 9.5 mg/dL
K (6 h): 4.8 meq/L
LDH (6 h): 1373 IU/L
Na (6 h): 139.8 meq/L
PL (6 h): 101.2 mg/dL
RALB (6 h): 3.7 g/dL
TBIL (6 h): 0.5 mg/dL
TC (6 h): 66.8 mg/dL
TG (6 h): 12.2 mg/dL
TP (6 h): 5.5 g/dL
gamma-GTP (6 h): 2 IU/L
TERMINAL_BW (9 h): 217.2 g
APTT (9 h): 17.8 s
Bas (9 h): 0%
Eos (9 h): 0.6%
Fbg (9 h): 203.8 mg/dL
Hb (9 h): 14.9 g/dL
Ht (9 h): 45.2%
Lym (9 h): 50.6%
MCH (9 h): 21.1 pg
MCHC (9 h): 32.8%
MCV (9 h): 64.3 fL
Mono (9 h): 12.2%
Neu (9 h): 36.8%
PT (9 h): 14.8 s
Plat (9 h): 99 x10_4/uL
RBC (9 h): 704.2 x10_4/ul
Ret (9 h): 7.7%
WBC (9 h): 52.6 x10_2/uL
KIDNEY_L (9 h): 1 g
KIDNEY_R (9 h): 1 g
KIDNEY_TOTAL (9 h): 1.9 g
ALP (9 h): 1469.6 IU/L
ALT (9 h): 302.8 IU/L
AST (9 h): 623.8 IU/L
CRE (9 h): 0.5 mg/dL
Cl (9 h): 101.8 meq/L
DBIL (9 h): 0.3 mg/dL
GLC (9 h): 171 mg/dL
IP (9 h): 8.1 mg/dL
K (9 h): 4.7 meq/L
LDH (9 h): 1091.2 IU/L
Na (9 h): 137 meq/L
PL (9 h): 126 mg/dL
RALB (9 h): 3.8 g/dL
TBIL (9 h): 0.6 mg/dL
TC (9 h): 86.2 mg/dL
TG (9 h): 9.4 mg/dL
TP (9 h): 5.5 g/dL
gamma-GTP (9 h): 2 IU/L
TERMINAL_BW (24 h): 208.7 g
APTT (24 h): 18 s
Bas (24 h): 0%
Eos (24 h): 0.6%
Fbg (24 h): 171 mg/dL
Hb (24 h): 15.6 g/dL
Ht (24 h): 47.7%
Lym (24 h): 73.4%
MCH (24 h): 20.5 pg
MCHC (24 h): 32.9%
MCV (24 h): 62.4 fL
Mono (24 h): 9.8%
Neu (24 h): 16.2%
PT (24 h): 12.5 s
Plat (24 h): 121.1 x10_4/uL
RBC (24 h): 763.8 x10_4/ul
Ret (24 h): 6.3%
WBC (24 h): 78.2 x10_2/uL
KIDNEY_L (24 h): 1 g
KIDNEY_R (24 h): 1 g
KIDNEY_TOTAL (24 h): 2 g
ALP (24 h): 1599.2 IU/L
ALT (24 h): 160.4 IU/L
AST (24 h): 350.8 IU/L
CRE (24 h): 0.6 mg/dL
Cl (24 h): 104 meq/L
DBIL (24 h): 0.1 mg/dL
GLC (24 h): 176 mg/dL
IP (24 h): 7.8 mg/dL
K (24 h): 5.2 meq/L
LDH (24 h): 172.4 IU/L
Na (24 h): 136.8 meq/L
PL (24 h): 116.4 mg/dL
RALB (24 h): 3.3 g/dL
TBIL (24 h): 0.5 mg/dL
TC (24 h): 60.8 mg/dL
TG (24 h): 16.8 mg/dL
TP (24 h): 5.1 g/dL
gamma-GTP (24 h): 1.4 IU/L
